Results taken from the CheMixHub viscosity set.
± gives the uncertainty stated by the source.

Experiment: xn = mol fraction of the nth substance listed

CCC(O)CC + O
298.15 K, 101 kPa
Details	viscosity [mPa·s]
x2 = 0.0181	4.598 ± 0.043
x2 = 0.0463	4.339 ± 0.042
x2 = 0.0845	4.074 ± 0.041
x2 = 0.1302	3.873 ± 0.042
x2 = 0.1754	3.748 ± 0.043
x2 = 0.1948	3.712 ± 0.044
x2 = 0.2262	3.67 ± 0.045
x2 = 0.2533	3.65 ± 0.046
x2 = 0.2782	3.641 ± 0.047
x2 = 0.3215	3.648 ± 0.05

CCCCCCCCC + CCCCCCCCCCCC
298.15 K, 101.33 kPa
Details	viscosity [mPa·s]
x1 = 0.0957	1.273 ± 0.031
x1 = 0.1995	1.187 ± 0.029
x1 = 0.3049	1.111 ± 0.027
x1 = 0.4056	1.022 ± 0.025
x1 = 0.5088	0.969 ± 0.024
x1 = 0.6103	0.8955 ± 0.023
x1 = 0.7039	0.8282 ± 0.021
x1 = 0.8049	0.7721 ± 0.02
x1 = 0.9023	0.7118 ± 0.019

CCCCCCCC/C=C\CCCCCCCC(=O)OCC(COC(=O)CCCCCCC/C=C\CCCCCCCC)OC(=O)CCCCCCC/C=C\CCCCCCCC + c1ccccc1
viscosity [mPa·s], 101.3 kPa
Details	x1 = 0.000368	x1 = 0.000535	x1 = 0.001078	x1 = 0.002049	x1 = 0.004187	x1 = 0.006457	x1 = 0.008697	x1 = 0.01009
298.15 K	0.613 ± 0.0042	0.6159 ± 0.0042	0.6281 ± 0.0043	0.6494 ± 0.0044	0.7009 ± 0.0047	0.7579 ± 0.005	0.8092 ± 0.0053	0.8347 ± 0.0054
303.15 K	0.572 ± 0.004	0.5754 ± 0.004	0.5855 ± 0.004	0.6052 ± 0.0042	0.6529 ± 0.0044	0.7052 ± 0.0047	0.7525 ± 0.005	0.7753 ± 0.0051
308.15 K	0.5349 ± 0.0038	0.5384 ± 0.0038	0.5476 ± 0.0038	0.5658 ± 0.0039	0.6095 ± 0.0042	0.6577 ± 0.0044	0.7013 ± 0.0047	0.7219 ± 0.0048

CCN(CCO)CCO + O
viscosity [mPa·s], 101 kPa
Details	303.15 K	308.15 K	313.15 K	318.15 K	323.15 K
x1 = 0.0478	2.433 ± 0.12	2.084 ± 0.11	1.809 ± 0.11	1.585 ± 0.11	1.4 ± 0.11
x1 = 0.1002	5.975 ± 0.19	4.885 ± 0.16	4.051 ± 0.14	3.403 ± 0.13	2.897 ± 0.12
x1 = 0.1411	10.13 ± 0.27	8.044 ± 0.23	6.499 ± 0.19	5.322 ± 0.17	4.422 ± 0.15
x1 = 0.1933	16.59 ± 0.42	12.84 ± 0.33	10.12 ± 0.27	8.088 ± 0.22	6.604 ± 0.19
x1 = 0.2959	31.21 ± 0.72	23.36 ± 0.57	17.84 ± 0.43	13.84 ± 0.34	10.95 ± 0.28
x1 = 0.3944	43.07 ± 0.93	31.83 ± 0.73	24.05 ± 0.55	18.38 ± 0.42	14.39 ± 0.35
x1 = 0.495	51.1 ± 1	37.78 ± 0.82	28.28 ± 0.61	21.56 ± 0.46	16.84 ± 0.38
x1 = 0.5912	54.81 ± 1	40.53 ± 0.84	30.44 ± 0.62	23.28 ± 0.47	18.22 ± 0.38
x1 = 0.7064	55.22 ± 0.97	40.91 ± 0.78	31.03 ± 0.58	23.93 ± 0.44	18.76 ± 0.37
x1 = 0.8113	53.42 ± 0.87	39.97 ± 0.71	30.47 ± 0.53	23.66 ± 0.41	18.65 ± 0.34
x1 = 0.8934	51.39 ± 0.78	38.76 ± 0.65	29.74 ± 0.49	23.19 ± 0.38	18.44 ± 0.31

CN(C)P(=O)(N(C)C)N(C)C + CCO
303.15 K, 101.3 kPa
Details	viscosity [mPa·s]
x1 = 0.1007	1.255 ± 0.016
x1 = 0.2043	1.461 ± 0.019
x1 = 0.2959	1.627 ± 0.023
x1 = 0.3983	1.807 ± 0.028
x1 = 0.5079	2.005 ± 0.035
x1 = 0.5998	2.18 ± 0.041
x1 = 0.698	2.362 ± 0.049
x1 = 0.8012	2.557 ± 0.057
x1 = 0.9052	2.75 ± 0.067

CCCCCCCC/C=C\CCCCCCCC(=O)OCC(COC(=O)CCCCCCC/C=C\CCCCCCCC)OC(=O)CCCCCCC/C=C\CCCCCCCC + Cc1ccccc1
viscosity [mPa·s], 101.33 kPa
Details	x1 = 0.000651	x1 = 0.001141	x1 = 0.003237	x1 = 0.006694	x1 = 0.009965	x1 = 0.015	x1 = 0.01736	x1 = 0.02174	x1 = 0.03032	x1 = 0.04061
293.15 K	0.6007 ± 0.016	0.6111 ± 0.016	0.6517 ± 0.017	0.7201 ± 0.019	0.7951 ± 0.02	0.9362 ± 0.023	0.971 ± 0.024	1.073 ± 0.026	1.306 ± 0.031	1.616 ± 0.038
298.15 K	0.5652 ± 0.015	0.5749 ± 0.016	0.6124 ± 0.016	0.6756 ± 0.018	0.7447 ± 0.019	0.8679 ± 0.022	0.9064 ± 0.023	0.9993 ± 0.025	1.212 ± 0.029	1.493 ± 0.035
303.15 K	0.5329 ± 0.015	0.5419 ± 0.015	0.5768 ± 0.016	0.6355 ± 0.017	0.6992 ± 0.018	0.8126 ± 0.021	0.8482 ± 0.022	0.9337 ± 0.023	1.129 ± 0.028	1.385 ± 0.033
308.15 K	0.5016 ± 0.014	0.5101 ± 0.014	0.5425 ± 0.015	0.5965 ± 0.016	0.6557 ± 0.017	0.7602 ± 0.02	0.793 ± 0.02	0.871 ± 0.022	1.051 ± 0.026	1.284 ± 0.031
313.15 K	0.4748 ± 0.013	0.4827 ± 0.014	0.513 ± 0.014	0.5635 ± 0.015	0.6185 ± 0.017	0.7155 ± 0.019	0.7459 ± 0.019	0.8182 ± 0.021	0.9851 ± 0.025	1.198 ± 0.029

C1COCO1 + CC(C)(C)O
303.15 K, 101 kPa
Details	viscosity [mPa·s]
x1 = 0.1001	1.967 ± 0.024
x1 = 0.2001	1.468 ± 0.022
x1 = 0.3001	1.102 ± 0.021
x1 = 0.4001	0.8793 ± 0.021
x1 = 0.5001	0.7657 ± 0.021
x1 = 0.6001	0.6755 ± 0.02
x1 = 0.7001	0.6067 ± 0.02
x1 = 0.8001	0.5731 ± 0.02
x1 = 0.9001	0.566 ± 0.02

CCC(O)CC + CCCCCCC
101 kPa
Details	viscosity [mPa·s]
293.4 K, x1 = 0.201	0.531 ± 0.038
294 K, x1 = 0.026	0.466 ± 0.034
294.1 K, x1 = 0.101	0.489 ± 0.036
295.1 K, x1 = 0.5	0.734 ± 0.049

C1COCO1 + CN(C)C=O
viscosity [mPa·s], 101 kPa
Details	x2 = 0.1012	x2 = 0.2021	x2 = 0.3028	x2 = 0.4032	x2 = 0.5033	x2 = 0.6032	x2 = 0.7028	x2 = 0.8021	x2 = 0.9012
298.15 K	0.567 ± 0.007	0.568 ± 0.007	0.578 ± 0.007	0.594 ± 0.007	0.614 ± 0.007	0.642 ± 0.007	0.676 ± 0.007	0.715 ± 0.008	0.759 ± 0.008
308.15 K	0.506 ± 0.007	0.51 ± 0.007	0.52 ± 0.007	0.535 ± 0.007	0.552 ± 0.007	0.578 ± 0.007	0.606 ± 0.007	0.637 ± 0.007	0.671 ± 0.007
318.15 K	0.467 ± 0.007	0.477 ± 0.007	0.488 ± 0.007	0.5 ± 0.007	0.515 ± 0.007	0.534 ± 0.007	0.555 ± 0.007	0.576 ± 0.007	0.597 ± 0.007

FCC(F)(F)F + OCCOCCO
viscosity [mPa·s], 101.32 kPa
Details	x2 = 0.788	x2 = 0.814	x2 = 0.816	x2 = 0.844	x2 = 0.845	x2 = 0.892	x2 = 0.893
293.15 K	12.4 ± 0.9	14.3 ± 1	–	16.7 ± 1.1	–	21 ± 1.4	–
313.15 K	–	–	6.78 ± 0.46	–	7.29 ± 0.5	–	8.26 ± 0.57

CCCCCCCCC + CCCCCC
298.15 K, 101.33 kPa
Details	viscosity [mPa·s]
x2 = 0.1073	0.6111 ± 0.016
x2 = 0.21	0.5693 ± 0.015
x2 = 0.2873	0.5367 ± 0.015
x2 = 0.4024	0.5017 ± 0.014
x2 = 0.5044	0.4527 ± 0.013
x2 = 0.6074	0.42 ± 0.012
x2 = 0.7035	0.3874 ± 0.012
x2 = 0.804	0.3547 ± 0.011
x2 = 0.9035	0.3272 ± 0.01
